# Measured values published in patent publication US20240124409A1, “GUAIANOLIDE SESQUITERPENE LACTONE DERIVATIVES AND PHARMACEUTICAL USE THEREOF” (NANJING UNIVERSITY OF CHINESE MEDICINE, priority 2021, published 2024).
# Columns and labels:
# [1] = test system: mouse sepsis model; assay: Mouse sepsis model (LPS), Q-PCR of inflammatory factors; format: in vivo, C57BL/6 mice; parameters: key: relative mRNA by 2^−ΔΔCt, normalized to Gapdh; conditions: 12 μmol/kg i.g.
# Source text: The mice were randomly divided into 8 groups, one of which was randomly selected as the normal group, and the other 7 groups were the model group, the parent drug 1 (0.4 and 4 μmol/kg), the hydrochloride 22 (4 μmol/kg), the fumarate 23 (0.4 and 4 μmol/kg) and dexamethasone (Dex, 12 μmol/kg) groups, respectively, with 6 mice in each group. 5 days before model establishment, the parent drug 1 (0.4 and 4 μmol/kg), the hydrochloride 22 (4 μmol/kg), the fumarate 23 (0.4 and 4 μmol/kg) and Dex (12 μmol/kg) were administered intragastrically. The mice in the normal group and model group were administered intragastrically the same volume of the solvent 0.5% CMC-Na. LPS (10 mg/kg) was injected intraperitoneally 1 hour after administration on the last day to establish a mouse sepsis model.
# At 6 h after intraperitoneal injection of LPS, the mice were sacrificed by cervical dislocation, and the abdominal cavity was opened. The lungs, livers and kidneys were taken out, and rinsed twice with pre-cooled PBS. The lung tissues, liver left lobe tissues and kidney tissues of the mice were cut, and fixed with 4% paraformaldehyde for 24-48 h. The remaining tissues were frozen at −70° Cfor subsequent use.
# 20 mg of kidney, lung and liver tissues were accurately weighed, rinsed with pre-cooled PBS solution, cut into small pieces by ophthalmic surgical scissors, and put into a glass homogenizer, into which was added 1 mL Trizol reagent for grinding to prepare tissue homogenate. Subsequently, the homogenate was transferred into a 1.5 mL EP tube without RNase and lysed on ice for 10 min. 200 μL chloroform was added, and the mixture was shaken violently, stood on ice for 3-5 min, and centrifuged at 12000 rpm and 4° C. for 15 min. The supernatant was aspirated carefully into a new 1.5 mL EP tube without RNase, into which was added the same volume of pre-cooled isopropanol, stood on an ice bath for 30 min, centrifuged at 12000 rpm and 4° C. for 10 min, and the supernatant was discarded. 75% ethanol-DEPC solution was added to wash the precipitate, and the total RNA was obtained by inversion and air drying on flat paper. Subsequently, 10 μL of DEPC treated water was added for dissolution. 1 μL of the total RNA solution was taken, and diluted to 100 times, the OD values of which at 260 nm and 280 nm were measured with a full wavelength microplate reader. If the ratio of OD260/OD280 is between 1.8 and 2.0, it is said that the extracted RNA has a high purity, i.e., it can be used in subsequent experiments.
# Subsequent experiments were carried out with 20 μL of a reverse transcription reaction system according to the method described in the kit instructions:
# Subsequent experiments were carried out with 20 μL of a reaction system according to the method described in the kit instructions:
# The above reagents were added into a micro-reaction tube, sealed with a sealing membrane, and placed in a Q-PCR instrument. The parameters were set according to the following reaction conditions to carry out the amplification experiment. The reaction conditions were as follows:
# The threshold cycle (Ct) value of each group was recorded. Calculating and analyzing were carried out by the 2^−ΔΔCt method (the expression level of the control gene Gapdh was set to 1 to correct the expression level of the target gene).
# [2] = test system: mouse acute lung injury model; assay: Mouse acute lung injury model (LPS), ELISA; format: in vivo, C57BL/6 mice; conditions: title: serum (text b290: lung tissues), 12 μmol/kg
# Description: In addition to the normal group injected intragastrically with PBS, other mice were injected intraperitoneally with LPS (7.5 mg/kg) to establish acute lung injury models. Three days before model establishment, the parent drug 1 (0.4 and 4 μmol/kg), the hydrochloride 22 (0.4 and 4 μmol/kg), the fumarate 23 (0.4 and 4 μmol/kg) and the positive drug Dex (12 μmol/kg) were administered intragastrically in advance, and LPS (7.5 mg/kg) was injected intraperitoneally half an hour after administration on the third day.
# abdominal cavity was opened. The lungs were taken out, and rinsed twice with pre-cooled PBS. […] The remaining tissues were frozen at −70° C. for subsequent use.
# 20 mg of lung tissues were accurately weighed, rinsed with pre-cooled PBS solution, cut into small pieces by ophthalmic surgical scissors, and put into a glass homogenizer, into which was added 180 μL PBS (containing 1 mM PMSF). The mixture was homogenized at 60 HZ for 180 s, and centrifuged at 3000 rpm/min at 4° C. for 20 min. 1 μL supernatant was taken, the protein concentration of which was measured with Nanodrop and leveled, and could be used for subsequent experiments.
# [3] = test system: acute gouty arthritis model rats induced by MSU; assay: Rat acute gouty arthritis model induced by MSU; format: in vivo, SD rats
# Description: During the adaptive feeding period, 2% pentobarbital sodium was used to anesthetize the rats by intraperitoneal injection at a dose of 0.25 mL/100 g. The circumferences of the ankle joints of the parent left hind limbs of the rats were measured. After the adaptive feeding, 2% pentobarbital sodium was used for intraperitoneal injection anesthesia at a dose of 0.25 mL/100 g. After the anesthesia, 8 rats were randomly selected as the blank group, and normal saline was injected into the joint cavity of their left hind limbs. The other rats were injected with 200 μL sodium urate into the joint cavity of the left hind limbs. 6 h after the model establishment, the rats were anesthetized with pentobarbital sodium, and the joint circumference was measured with a 2 mm wide paper strip. According to the joint swelling ratio, the rats were divided into seven groups.
# Administration was carried out once at 10.5 h and 22.5 h after the model establishment, respectively.
# Joint swelling is one of the main characteristics of acute gouty arthritis model rats induced by MSU. Before the model establishment, and at 6 h, 12 h and 24 h after the model establishment, the circumferences of the ankle joints of the left hind limbs were measured respectively, and the joint swelling ratios were calculated. The circumferences at 0.5 mm below the ankle joints of the left hind feet of rats in each group were measured with a 2 mm wide paper strip and a ruler, the measurement was repeated twice, and the average value was taken to calculate the joint swelling ratio.
# Joint swelling ratio=(joint circumference at test time point−initial joint circumference)/initial joint circumference
# [4] = Table 12, title 'in lung' (text b281: liver)
smiles,measurement,setting,value
"C[C@@H]1C[C@H]2[C@@H]3CCC4=CC(=O)C=C[C@]4(C)[C@@]3(F)[C@@H](O)C[C@]2(C)[C@@]1(O)C(=O)CO [Dex, dexamethasone, reference compound]",Il1 mRNA expression,[1]; [4],7.54 ± 0.70
same,Il6 mRNA expression,[1]; [4],4.27 ± 1.33
same,Tnf mRNA expression,[1]; [4],7.04 ± 0.77
same,Il1 mRNA expression,[1]; kidney,6.05 ± 1.03
same,Il6 mRNA expression,[1]; kidney,5.76 ± 0.72
same,Tnf mRNA expression,[1]; kidney,6.62 ± 0.68
same,Il1 mRNA expression,[1]; lung,7.20 ± 0.36
same,Il6 mRNA expression,[1]; lung,9.88 ± 0.80
same,Tnf mRNA expression,[1]; lung,8.99 ± 0.76
same,IL-1β,[2],1873.00 ± 86.52 pg/mL
same,IL-6,[2],1423.00 ± 168.40 pg/mL
COc1cc2c(c(OC)c1OC)-c1ccc(OC)c(=O)cc1[C@@H](NC(C)=O)CC2 [colchicine],joint swelling ratio,"[3]; 6 h after model establishment (before dosing), 0.5 mg/kg i.g.",16.15 ± 1.37
same,joint swelling ratio,"[3]; 12 h after model establishment, 0.5 mg/kg i.g.",29.10 ± 3.17
same,joint swelling ratio,"[3]; 24 h after model establishment, 0.5 mg/kg i.g.",23.28 ± 2.14
C[C@]12C=CC(=O)C=C1CC[C@@H]1[C@@H]2[C@@H](O)C[C@@]2(C)[C@H]1CC[C@]2(O)C(=O)CO [prednisolone],joint swelling ratio,"[3]; 6 h after model establishment (before dosing), 3.125 mg/kg i.g.",15.78 ± 1.22
same,joint swelling ratio,"[3]; 12 h after model establishment, 3.125 mg/kg i.g.",25.43 ± 2.03
same,joint swelling ratio,"[3]; 24 h after model establishment, 3.125 mg/kg i.g.",18.48 ± 1.66
